Seven substances from patent US20260091078A1, “OLIGOPEPTIDE THAT INHIBITS ANGIOGENESIS AND VASCULAR FUNCTION” (UNIVERSIDAD NACIONAL AUTONOMA DE MEXICO, priority 2019, published 2026) can be followed below.

Assay [1] deals with immortalized bovine umbilical-vein endothelial cells (BUVEC E6E7). Put plainly: Proliferation of BUVEC E6E7 endothelial cells stimulated with VEGF (EdU click assay). As to conditions: 100 nM, VEGF 50 ng ml^-1. It is filed as cell-based. Here is the method:
(§1) On a 96-well plate treated for cell culture, BUVEC E6E7 and HUVEC cells were seeded at a density of ˜14,000 and ˜11,000 cells cm^−2, respectively. BUVEC E6E7 cells were maintained in F12K culture media with 10% (v/v) fetal bovine serum (FBS) and the HUVEC in F12K media supplemented with 20% of FBS, 100 μg ml^−1 heparin and 25 μg ml^−1 of endothelial cell growth supplement (ECGS). After 24 hours, the cells were starved with FBS-reduced media (0.1% of FBS for BUVEC E6E7 and 0.5% for HUVEC) for 16 hours to synchronize cells in phase GO of the reproductive cycle. After this time, FBS and heparin were replenished only to HUVEC. The cells were then treated with vasoinhibin or the oligopeptide THGRGFI in concentrations ranging from 0.001 to 100 nM for 24 hours in the presence of 10 μM of the thymidine analog 5-Ethynyl-2′-deoxyuridine (EdU) and 50 ng ml^−1 VEGF for the BUVEC E6E7 or the combination of 25 ng ml^−1 VEGF and 20 ng ml^−1 bFGF for HUVEC. At the end of the experiment, cells were fixed with 4% paraformaldehyde, permeabilized with 0.5% Triton X-100 in TBS1x, and stained to detect the newly synthetized DNA by the incorporation of EdU using the “click” assay (which involves a copper catalyzed reaction to covalently bind fluorescent azide to the EDU incorporated to DNA). Total DNA was counterstained with Hoechst 33342 and the “click”-stained nuclei were quantified and plotted relative to the total number of Hoechst 33342-stained nuclei.
For the assay, BUVEC E6E7 cells were seeded at a density of ˜14′000 cells cm^−2 in a 96 well plate with F12K with 10% (v/v) FBS. After 24 hours, cells were starved with 0.1% of FBS for GO synchronization for ˜16 hours. Next, the cells were treated with the different oligopeptides in presence of 10 μM of the thymidine analog EdU and 50 ng ml^−1 of VEGF. Finally, the cells were fixed, permeabilized, and stained for the newly synthetized DNA by the EdU incorporation through the ‘click’ assay. The total DNA was stained with Hoechst 33342 and the percentage of ‘click’-stained nuclei over the total nuclei was a measure of proliferation.

The subject of assay [2] is human umbilical-vein endothelial cells (HUVEC). As to the kind of experiment: Proliferation of HUVEC stimulated with VEGF and bFGF (EdU click assay). It is filed as cell-based. As to conditions: for dose-response effect (biological potency) on proliferation of HUVEC: different doses, 24 hours, VEGF 25 ng ml^-1 and bFGF 20 ng ml^-1. Here is the method: as §1
HUVEC were seeded on a 96 well plate at a density of ˜11,000 cells cm^−2 and maintained in F12K supplemented with 20% of FBS, 100 μg ml^−1 heparin and 25 μg ml^−1 endothelial cell growth supplement (ECGS). After 24 hours, the cells were synchronized in GO with starving conditions (FBS 0.5%) for 16 hours, and after that FBS and the heparin were replenished. Cells were then treated with THGRGFI, the different oligopeptides and 123 amino acids vasoinhibin, each in a concentration of 100 nM, for 24 hours in presence or absence of 10 μM of thymidine analog 5-Ethynyl-2′-deoxyuridine (EdU) and a combination of 25 ng ml^−1 VEGF and 20 ng ml^−1 bFGF. Finally, the cells were fixed with 4% paraformaldehyde, permeabilized with 0.5% of Triton X-100 in TBS1x and stained for the newly synthetized DNA with the ‘click’ method that detects the EdU incorporation. Total DNA was stained with Hoechst 33342 and the percentage of ‘click’-stained nuclei relative to total nuclei (Hoechst 33342-stained) indicated cell proliferation.
Approximately 11,000 HUVEC cells cm^−2 were seeded on a 96 well plate in F12K media with 20% FBS, 100 μg ml^−1 heparin and 25 μg ml^−1 ECGS. After 24 hours, cells were starved with 0.5% of FBS for ˜16 hours, and after that time the FBS and heparin were added again and cells treated with different doses of the alanine substituted oligopeptides for 24 hours, in the presence of EdU and a combination of 25 ng ml^−1 VEGF and 20 ng ml^−1 bFGF. Finally, the cells were fixed, permeabilized and stained to quantify the synthesis of DNA as a sign of proliferation.

As to “GFITKAI (Amino acids 49 to 55 of human prolactin; listed as Homo sapiens)”, the “effect on VEGF-induced proliferation of BUVEC E6E7 at single concentration” value in assay [1] is reported as “did not shown any activity”.
Still for that read-out and setting: then “GRGFITK (Amino acids 47 to 53 of human prolactin; listed as Homo sapiens)”, with “significatively inhibited the VEGF-induced proliferation of endothelial cells”.
Turning to His Gly Arg [HGR], the “dose-response effect (biological potency) on proliferation of HUVEC” value in assay [2] is “very similar to the oligopeptide THGRGFI”.
Turning to “R4A: THGRGFI with the arginine at position X4 substituted by alanine (THGAGFI)”, the “dose-response effect (biological potency) on proliferation of HUVEC” value in assay [2] was “did not inhibit endothelial proliferation”.
Turning to “THIRGGF (scrambled sequence of SEQ ID NO 1) [Scr2, reference compound]”, in assay [2] (100 nM, VEGF 25 ng ml^-1 and bFGF 20 ng ml^-1, 24 hours), the “effect on proliferation of HUVEC at single concentration” value was “did not have any effect”.
Take “TKAINSC (Amino acids 52 to 58 of human prolactin; listed as Homo sapiens)”: in assay [1], the “effect on VEGF-induced proliferation of BUVEC E6E7 at single concentration” value is recorded as “did not shown any activity”.
As to “Thr His Gly Arg (THGR; Amino acids 45 to 48 of human prolactin; listed as Homo sapiens)”, the “dose-response effect (biological potency) on proliferation of HUVEC” value in assay [2] is “very similar to the oligopeptide THGRGFI”.
